Data taken from ChEMBL document CHEMBL5532658 (Eur J Med Chem, 2024).
pEC50, pIC50: −log10 of the molar value. Calls of active or inactive are those of the source. No cut-off for these calls is given here.

Experiments:
MDA-MB-231 [1] = experiment: Antiproliferative activity against human MDA-MB-231 cells incubated for 120 hrs by CCK-8 assay; type: functional, cell-based; conditions: MDA-MB-231, 120 h
[2] = Metabolic stability in mouse liver microsomes assessed as half-life; type: ADME, Microsome
[3] = target: T1, Dual specificity mitogen-activated protein kinase kinase 5 (Homo sapiens, UniProt Q13163); experiment: Inhibition of MAP2K5 (unknown origin) by discoverX kinomescan assay
T1 sequence (Q13163 whole entry): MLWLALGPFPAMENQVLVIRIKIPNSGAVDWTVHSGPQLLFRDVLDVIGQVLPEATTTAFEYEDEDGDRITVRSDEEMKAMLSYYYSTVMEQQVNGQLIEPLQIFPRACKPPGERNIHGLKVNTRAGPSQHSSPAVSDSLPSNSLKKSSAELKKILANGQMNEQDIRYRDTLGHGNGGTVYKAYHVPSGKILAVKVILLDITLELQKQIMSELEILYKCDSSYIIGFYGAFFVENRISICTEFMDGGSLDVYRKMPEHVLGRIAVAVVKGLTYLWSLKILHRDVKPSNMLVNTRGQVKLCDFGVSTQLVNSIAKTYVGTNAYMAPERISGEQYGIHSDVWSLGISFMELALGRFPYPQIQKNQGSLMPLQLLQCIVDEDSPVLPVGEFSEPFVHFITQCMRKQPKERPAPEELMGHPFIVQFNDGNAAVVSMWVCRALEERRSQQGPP

[4] = target: Cyclin-dependent kinase 13 (Homo sapiens) (UniProt Q14004); experiment: Inhibition of CDK13 (unknown origin) at 1 uM by discoverX kinomescan assay
[5] = target: Cyclin-dependent kinase 16 (Homo sapiens) (UniProt Q00536); experiment: Inhibition of CDK16 (unknown origin) at 1 uM by discoverX kinomescan assay
[6] = target: Cyclin-dependent kinase 17 (Homo sapiens) (UniProt Q00537); experiment: Inhibition of CDK17 (unknown origin) at 1 uM by discoverX kinomescan assay
[7] = target: Cyclin-dependent kinase 18 (Homo sapiens) (UniProt Q07002); experiment: Inhibition of CDK18 (unknown origin) at 1 uM by discoverX kinomescan assay
[8] = target: T2, Mitogen-activated protein kinase 15 (Homo sapiens) (UniProt Q8TD08); experiment: Inhibition of ERK7 (unknown origin) at 1 uM by discoverX kinomescan assay
T2 sequence (whole entry): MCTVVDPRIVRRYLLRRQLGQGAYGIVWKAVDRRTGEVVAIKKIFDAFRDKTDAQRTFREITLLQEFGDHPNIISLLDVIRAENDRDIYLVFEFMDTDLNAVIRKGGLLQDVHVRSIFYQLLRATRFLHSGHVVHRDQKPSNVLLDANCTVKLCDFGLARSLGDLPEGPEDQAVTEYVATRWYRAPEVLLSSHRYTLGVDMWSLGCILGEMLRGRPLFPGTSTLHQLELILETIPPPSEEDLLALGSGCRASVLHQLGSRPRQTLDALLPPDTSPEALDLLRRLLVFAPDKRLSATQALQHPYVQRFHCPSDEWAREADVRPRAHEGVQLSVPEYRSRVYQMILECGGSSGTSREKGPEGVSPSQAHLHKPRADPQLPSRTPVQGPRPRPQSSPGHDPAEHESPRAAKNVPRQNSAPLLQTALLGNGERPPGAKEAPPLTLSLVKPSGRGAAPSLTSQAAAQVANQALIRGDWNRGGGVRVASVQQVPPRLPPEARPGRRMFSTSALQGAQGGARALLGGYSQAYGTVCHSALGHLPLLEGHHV

[9] = target: Cyclin-dependent kinase 7 (Homo sapiens) (UniProt P50613); experiment: Inhibition of CDK7 in human MDA-MB-453 cells assessed as decrease in Thr160 phosphorylation of CDK2 at 37 to 333 nM incubated for 24 hrs by Western blot substrate; type: cell-based; conditions: dose 37-333 nM
MDA-MB-453 [10] = experiment: Downregulation of Rb protein phosphorylation at Ser780 in human MDA-MB-453 cells incubated for 24 hrs by Western blot analysis; type: functional, cell-based; conditions: dose 37-333 nM
MDA-MB-453 [11] = experiment: Downregulation of Rb protein phosphorylation at Thr821 in human MDA-MB-453 cells incubated for 24 hrs by Western blot analysis; type: functional, cell-based; conditions: dose 37-333 nM
MDA-MB-453 [12] = experiment: Downregulation of Rb protein phosphorylation at Thr826 in human MDA-MB-453 cells incubated for 24 hrs by Western blot analysis; type: functional, cell-based; conditions: dose 37-333 nM
MDA-MB-231 [13] = experiment: Downregulation of Rb protein phosphorylation at Ser608 in human MDA-MB-231 cells incubated for 24 hrs by Western blot analysis; type: functional, cell-based; conditions: dose 37-333 nM
MDA-MB-231 [14] = experiment: Downregulation of Rb protein phosphorylation at Ser795 in human MDA-MB-231 cells incubated for 24 hrs by Western blot analysis; type: functional, cell-based; conditions: dose 37-333 nM
MDA-MB-231 [15] = experiment: Downregulation of Rb protein phosphorylation at Thr821 in human MDA-MB-231 cells incubated for 24 hrs by Western blot analysis; type: functional, cell-based; conditions: dose 37-333 nM
MDA-MB-231 [16] = experiment: Downregulation of Rb protein phosphorylation at Thr826 in human MDA-MB-231 cells incubated for 24 hrs by Western blot analysis; type: functional, cell-based; conditions: dose 37-333 nM
MDA-MB-231 [17] = experiment: Inhibition of RNA polymerase 2 C-terminal domain phosphorylation at Ser5 in heptad repeat in human MDA-MB-231 cells at 37 to 333 nM incubated for 24 hrs by Western blotting analysis; type: cell-based; conditions: dose 37-333 nM
MDA-MB-231 [18] = experiment: Inhibition of RNA polymerase 2 C-terminal domain phosphorylation at Ser7 in heptad repeat in human MDA-MB-231 cells at 37 to 333 nM incubated for 24 hrs by Western blotting analysis; type: cell-based; conditions: dose 37-333 nM
MDA-MB-453 [19] = experiment: Induction of cell cycle arrest in human MDA-MB-453 cells assessed as G0/G1 phase arrest at 12.3 to 1000 nM incubated for 24 hrs by PI staining based flow cytometry analysis; type: functional; conditions: dose 12.3-1000 nM
[20] = Half life in CD1 mouse at 1 mg/kg, iv measured upto 24 hrs by LC-MS/MS analysis; type: ADME, organism-based; conditions: in vivo
[21] = Clearance in CD1 mouse at 1 mg/kg, iv measured upto 24 hrs by LC-MS/MS analysis; type: ADME, organism-based; conditions: in vivo
[22] = AUC(0 to t) in CD1 mouse at 1 mg/kg, iv measured upto 24 hrs by LC-MS/MS analysis; type: ADME, organism-based; conditions: in vivo
[23] = Volume of distribution at steady state in CD1 mouse at 1 mg/kg, iv measured upto 24 hrs by LC-MS/MS analysis; type: ADME, organism-based; conditions: in vivo, read-out: Vdss
[24] = Cmax in CD1 mouse at 10 mg/kg, po measured upto 24 hrs by LC-MS/MS analysis; type: ADME, organism-based; conditions: in vivo
[25] = Oral bioavailability in CD1 mouse at 10 mg/kg measured upto 24 hrs by LC-MS/MS analysis; type: ADME, organism-based; conditions: in vivo
[26] = Toxicity in Balb/c mouse xenografted with human MDA-MB-231 cells assessed as change in body weight at 5 to 10 mg/kg po administered once daily for 21 days and measured every three days; type: organism-based; conditions: in vivo, 504 h, dose 5-10 mg/kg, time 21 day

Cyclin-dependent kinase 18 (Homo sapiens), sequence (Q07002 whole entry): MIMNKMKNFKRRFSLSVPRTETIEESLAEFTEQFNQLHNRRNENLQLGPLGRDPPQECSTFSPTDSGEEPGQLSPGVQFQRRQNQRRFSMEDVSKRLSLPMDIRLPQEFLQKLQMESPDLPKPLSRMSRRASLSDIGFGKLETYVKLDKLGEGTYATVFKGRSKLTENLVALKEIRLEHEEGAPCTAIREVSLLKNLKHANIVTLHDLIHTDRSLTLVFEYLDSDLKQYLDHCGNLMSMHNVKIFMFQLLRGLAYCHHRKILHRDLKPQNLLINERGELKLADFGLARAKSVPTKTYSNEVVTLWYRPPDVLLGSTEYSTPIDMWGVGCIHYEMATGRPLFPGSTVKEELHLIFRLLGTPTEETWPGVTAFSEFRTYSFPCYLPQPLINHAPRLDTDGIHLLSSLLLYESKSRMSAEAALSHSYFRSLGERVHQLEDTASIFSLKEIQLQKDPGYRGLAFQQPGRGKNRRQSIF
Cyclin-dependent kinase 13 (Homo sapiens), sequence (Q14004 whole entry, looked up): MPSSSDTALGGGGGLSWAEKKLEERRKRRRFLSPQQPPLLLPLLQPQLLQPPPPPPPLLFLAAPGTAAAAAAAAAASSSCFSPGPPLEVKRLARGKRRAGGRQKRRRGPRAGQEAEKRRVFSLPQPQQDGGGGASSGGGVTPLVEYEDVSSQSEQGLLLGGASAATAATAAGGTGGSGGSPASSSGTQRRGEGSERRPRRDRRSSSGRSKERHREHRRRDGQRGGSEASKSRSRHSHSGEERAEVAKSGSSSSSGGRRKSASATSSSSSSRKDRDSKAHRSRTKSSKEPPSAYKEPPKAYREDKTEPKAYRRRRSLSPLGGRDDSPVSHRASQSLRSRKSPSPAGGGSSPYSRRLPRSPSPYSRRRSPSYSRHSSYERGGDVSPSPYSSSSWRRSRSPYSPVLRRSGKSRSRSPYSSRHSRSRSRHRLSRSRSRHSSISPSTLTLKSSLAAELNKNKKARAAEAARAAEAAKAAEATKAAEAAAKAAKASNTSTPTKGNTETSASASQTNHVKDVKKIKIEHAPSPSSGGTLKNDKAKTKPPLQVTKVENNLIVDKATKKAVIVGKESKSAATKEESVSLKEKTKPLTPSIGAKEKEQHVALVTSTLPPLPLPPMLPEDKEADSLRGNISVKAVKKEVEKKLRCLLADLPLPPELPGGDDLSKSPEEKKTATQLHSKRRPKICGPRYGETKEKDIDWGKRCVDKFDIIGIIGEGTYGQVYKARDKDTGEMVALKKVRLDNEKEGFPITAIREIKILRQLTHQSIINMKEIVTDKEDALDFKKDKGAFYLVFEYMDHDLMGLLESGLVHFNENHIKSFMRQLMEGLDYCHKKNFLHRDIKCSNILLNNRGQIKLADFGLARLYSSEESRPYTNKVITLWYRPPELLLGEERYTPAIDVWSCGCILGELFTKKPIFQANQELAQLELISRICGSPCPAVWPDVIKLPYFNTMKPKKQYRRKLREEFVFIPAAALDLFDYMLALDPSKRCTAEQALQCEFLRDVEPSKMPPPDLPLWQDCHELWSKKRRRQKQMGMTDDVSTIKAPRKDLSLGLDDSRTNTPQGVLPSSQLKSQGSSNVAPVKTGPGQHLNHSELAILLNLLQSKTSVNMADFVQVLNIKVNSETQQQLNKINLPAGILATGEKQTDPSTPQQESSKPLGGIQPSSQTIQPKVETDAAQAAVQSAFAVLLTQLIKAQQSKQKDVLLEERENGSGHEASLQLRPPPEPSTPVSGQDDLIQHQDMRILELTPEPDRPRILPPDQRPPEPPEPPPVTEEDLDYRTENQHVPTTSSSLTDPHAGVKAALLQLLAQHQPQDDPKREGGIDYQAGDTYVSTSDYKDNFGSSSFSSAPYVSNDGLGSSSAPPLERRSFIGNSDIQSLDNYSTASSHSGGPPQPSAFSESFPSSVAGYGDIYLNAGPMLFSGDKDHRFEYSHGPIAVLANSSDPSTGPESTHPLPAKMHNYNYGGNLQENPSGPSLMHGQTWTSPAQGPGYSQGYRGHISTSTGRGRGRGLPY
Cyclin-dependent kinase 16 (Homo sapiens), sequence (Q00536 whole entry): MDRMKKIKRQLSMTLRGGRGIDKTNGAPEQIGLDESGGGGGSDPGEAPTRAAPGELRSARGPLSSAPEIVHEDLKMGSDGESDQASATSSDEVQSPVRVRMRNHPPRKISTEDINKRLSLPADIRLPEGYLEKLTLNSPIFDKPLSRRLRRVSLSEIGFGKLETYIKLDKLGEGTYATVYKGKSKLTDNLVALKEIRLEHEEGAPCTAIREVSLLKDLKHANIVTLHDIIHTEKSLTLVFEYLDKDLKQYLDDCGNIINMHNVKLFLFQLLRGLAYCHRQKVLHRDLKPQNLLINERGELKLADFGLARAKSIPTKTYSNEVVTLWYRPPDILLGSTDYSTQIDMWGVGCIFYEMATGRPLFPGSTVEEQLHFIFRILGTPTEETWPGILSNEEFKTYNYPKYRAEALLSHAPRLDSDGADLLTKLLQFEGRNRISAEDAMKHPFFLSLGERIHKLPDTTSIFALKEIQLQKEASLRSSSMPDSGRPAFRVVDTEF
Cyclin-dependent kinase 17 (Homo sapiens), sequence (Q00537 whole entry, looked up): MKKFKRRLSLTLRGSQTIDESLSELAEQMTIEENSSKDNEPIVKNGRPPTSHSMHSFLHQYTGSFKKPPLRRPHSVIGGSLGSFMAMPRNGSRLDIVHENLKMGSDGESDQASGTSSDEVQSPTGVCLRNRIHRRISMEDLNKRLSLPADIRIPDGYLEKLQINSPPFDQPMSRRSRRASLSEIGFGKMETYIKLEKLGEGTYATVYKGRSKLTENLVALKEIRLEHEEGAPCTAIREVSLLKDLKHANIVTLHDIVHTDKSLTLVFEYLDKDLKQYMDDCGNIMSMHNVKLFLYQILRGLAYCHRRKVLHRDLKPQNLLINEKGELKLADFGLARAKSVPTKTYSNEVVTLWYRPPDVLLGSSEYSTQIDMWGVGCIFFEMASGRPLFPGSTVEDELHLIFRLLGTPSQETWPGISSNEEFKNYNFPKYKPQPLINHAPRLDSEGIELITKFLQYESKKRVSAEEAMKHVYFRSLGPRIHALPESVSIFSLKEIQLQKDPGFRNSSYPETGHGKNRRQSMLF
Cyclin-dependent kinase 7 (Homo sapiens), sequence (P50613 whole entry): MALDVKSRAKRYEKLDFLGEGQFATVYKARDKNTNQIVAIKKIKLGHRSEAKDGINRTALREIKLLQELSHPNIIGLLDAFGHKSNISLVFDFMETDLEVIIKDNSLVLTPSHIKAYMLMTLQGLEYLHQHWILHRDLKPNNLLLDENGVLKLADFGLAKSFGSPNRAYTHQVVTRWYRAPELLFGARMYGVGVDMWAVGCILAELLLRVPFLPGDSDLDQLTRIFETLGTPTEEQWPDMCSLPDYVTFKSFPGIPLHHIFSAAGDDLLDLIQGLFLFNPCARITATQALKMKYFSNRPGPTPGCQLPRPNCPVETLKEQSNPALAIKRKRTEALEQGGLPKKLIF

pEC50 (MDA-MB-231 [1]): 6.49
half-life [2]: 0.85 h
pIC50 [3]: 6.77
inhibition [4]: inactive
inhibition [5]: inactive
inhibition [6]: inactive
inhibition [7]: inactive
inhibition [9]: Active
half-life [20]: 1.9 h
clearance [21]: 68.3 mL/min/kg
AUC(0-t) at 24 h [22]: 230 ng·h/mL
Vd [23]: 4.6 L/kg
Cmax [24]: 117 ng/mL
bioavailability [25]: 22.3%
Structure (SMILES): CP(C)(=O)c1c(C#N)ccc2c(-c3nc(N[C@@H]4CNC[C@@H](F)C4)nc4ccsc34)c[nH]c12
inhibition [8]: inactive
Activity (MDA-MB-453 [10]): Dose-Dependent Effect
Activity (MDA-MB-453 [11]): Dose-Dependent Effect
Activity (MDA-MB-453 [12]): Dose-Dependent Effect
Activity (MDA-MB-231 [13]): Dose-Dependent Effect
Activity (MDA-MB-231 [14]): Dose-Dependent Effect
Activity (MDA-MB-231 [15]): Dose-Dependent Effect
Activity (MDA-MB-231 [16]): Dose-Dependent Effect
inhibition (MDA-MB-231 [17]): Active
inhibition (MDA-MB-231 [18]): Active
Activity (MDA-MB-453 [19]): Active
Activity [26]: Non-Toxic
